Laboratory results taken from patent publication US6953808B2, “Method for treating gastric disorders using optically pure (−) pantoprazole” (Sepracor Inc., priority 1993, dated 2005).

Tests used:
[1] = tested on: hepatic drug metabolizing enzyme systems; settings: intact rats and rat microsomal enzyme preparations; compared to omeprazole; cited from earlier work
mice [2] = test: Acute toxicity (LD50) in mice; type: in vivo
rats = settings: two year; cited from earlier work
mice [3] = settings: cited from earlier work
[4] = tested on: exogenously stimulated acid secretion; settings: secretion induced by a variety of agonists; cited from earlier work
[5] = neutral and moderately acidic conditions; compared with omeprazole; cited from earlier work
rat = settings: cited from earlier work
[6] = tested on: endogenous acid secretion; test: Inhibition of endogenous acid secretion in pylorus-ligated rats; type: in vivo, rat; settings: ratio of doses for 50% reduction
Excerpt: This may increase pantoprazole's selectivity for the acid secreting parietal cells, where low pH conditions exist in the intracellular canaliculi. In intact animals, pantoprazole is active in inhibiting gastric acid secretion in both rats and dogs. Specifically, the intravenous and oral doses required to reduce endogenous acid secretion in pylorus-ligated rats by 50% are in the 1-3 μmole/kg range. […] Racemic pantoprazole is also effective at doses less than 5 μmole/kg in inhibiting exogenously stimulated acid secretion induced by a variety of agonists, indicating general activity of the drug in inhibiting acid secretion.

serum gastrin = settings: humans, short-term administration; cited from earlier work
[7] = tested on: endogenous acid secretion; settings: pylorus-ligated rats, cited from earlier work
duodenal ulcers = settings: patients with duodenal ulcers, after four weeks of 20 to 80 mg per day; cited from earlier work
H^+,K^+-ATPase = H^+,K^+-ATPase (Homo sapiens, UniProt P20648); settings: cited from earlier work
beta-adrenergic = settings: cited from earlier work

Sequence of H^+,K^+-ATPase (P20648 whole entry): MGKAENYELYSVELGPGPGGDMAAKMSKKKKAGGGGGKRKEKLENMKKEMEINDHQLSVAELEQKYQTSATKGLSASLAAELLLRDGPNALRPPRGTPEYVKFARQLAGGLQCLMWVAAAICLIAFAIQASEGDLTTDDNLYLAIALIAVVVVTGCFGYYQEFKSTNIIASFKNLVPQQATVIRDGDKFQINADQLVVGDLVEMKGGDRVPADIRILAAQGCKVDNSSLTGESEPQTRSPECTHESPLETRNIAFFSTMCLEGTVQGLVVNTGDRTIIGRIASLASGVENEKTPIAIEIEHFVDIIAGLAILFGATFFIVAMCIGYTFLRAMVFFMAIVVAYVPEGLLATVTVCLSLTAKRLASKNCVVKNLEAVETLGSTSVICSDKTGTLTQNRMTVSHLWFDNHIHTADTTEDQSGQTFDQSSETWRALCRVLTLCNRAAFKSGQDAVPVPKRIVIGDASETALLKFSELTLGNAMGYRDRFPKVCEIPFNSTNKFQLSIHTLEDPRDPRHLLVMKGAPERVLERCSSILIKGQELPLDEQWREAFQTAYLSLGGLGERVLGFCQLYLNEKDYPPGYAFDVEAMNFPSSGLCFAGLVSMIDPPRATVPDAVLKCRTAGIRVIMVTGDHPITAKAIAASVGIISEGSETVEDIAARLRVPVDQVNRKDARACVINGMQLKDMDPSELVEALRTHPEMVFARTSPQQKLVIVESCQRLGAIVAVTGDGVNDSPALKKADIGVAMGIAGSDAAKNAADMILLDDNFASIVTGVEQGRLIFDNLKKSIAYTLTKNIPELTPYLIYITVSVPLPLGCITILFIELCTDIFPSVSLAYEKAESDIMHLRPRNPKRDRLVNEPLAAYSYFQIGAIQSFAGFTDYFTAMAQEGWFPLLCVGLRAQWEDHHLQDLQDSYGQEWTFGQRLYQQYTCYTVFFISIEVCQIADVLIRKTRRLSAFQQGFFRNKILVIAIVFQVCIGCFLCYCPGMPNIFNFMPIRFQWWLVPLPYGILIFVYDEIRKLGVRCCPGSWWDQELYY
Sequence of H^+,K^+-ATPase (P51164 whole entry partner): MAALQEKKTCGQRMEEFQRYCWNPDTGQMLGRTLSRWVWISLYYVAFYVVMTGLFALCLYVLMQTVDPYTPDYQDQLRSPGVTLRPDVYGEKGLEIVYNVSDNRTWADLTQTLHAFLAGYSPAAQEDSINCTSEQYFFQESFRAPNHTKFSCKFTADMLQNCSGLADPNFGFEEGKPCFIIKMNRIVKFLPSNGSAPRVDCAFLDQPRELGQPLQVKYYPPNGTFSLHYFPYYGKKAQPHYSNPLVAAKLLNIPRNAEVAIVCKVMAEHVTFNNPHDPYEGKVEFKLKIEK

COc1ccnc(C[S+]([O-])c2nc3ccc(OC(F)F)cc3[nH]2)c1OC (racemic) [racemic pantoprazole]
inhibition of hepatic drug metabolizing enzyme systems [1]: weaker inhibitor
p.o./i.v. LD50 ratio (mice [2]): approximately 2
finding in carcinogenicity study (rats): hepatocellular neoplasia
intravenous LD50 (mice [3]): 975 µmol/kg
effective dose inhibiting exogenously stimulated acid secretion [4]: less than 5 μmole/kg
chemical stability [5]: more chemically stable
oral LD50 (rat; in vivo, po): > 2,467 μmol/kg
intravenous LD50 (rat; intravenous): 632 µmol/kg
calculated oral/intravenous (p.o./i.v.) ratio [6]: approximately 2
fasting serum gastrin levels (serum gastrin): significantly elevated
intravenous dose required to reduce endogenous acid secretion by 50% ([7]; intravenous): 1 to 3 µmol/kg
oral dose required to reduce endogenous acid secretion by 50% ([7]; oral): 1 to 3 µmol/kg
ulcer healing (duodenal ulcers): 90-100%

COc1ccnc(C[S+]([O-])c2nc3cc(OC(F)F)ccc3[n-]2)c1OC.[Na+] (racemic) [Racemic pantoprazole sodium]
inhibition of H+,K+-ATPase (H^+,K^+-ATPase): potent, irreversible inhibitor

CC(C)NC[C@H](O)COc1cccc2ccccc12 [L-form of propranolol, propranolol]
potency relative to D-enantiomer (beta-adrenergic): 100 times
